According to PubChem BioAssay AID1918946 (Molecular Pharmacology Branch, DTP, NCI, 2023):

System: 885512-296-R-J2-PDC complex spheroid viability
Experiment: Anticancer human tumor 885512-296-R-J2-PDC patient-derived breast carcinoma cell line growth inhibition
Conditions: for IC50: curve of first compound; for viability, T/C: stronger effect = lower value
In short: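 Complex spheroids of tumor cells with HUVEC and human MSCs, exposed to iadademstat combined with other agents. Each agent tested in half-log steps from near clinical Cmax (else 10 microM top), DMSO ≤0.25%.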
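Note: spheroids exposed to agents for 7 days before viability read.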

## O=C(c1cc(Cc2n[nH]c(=O)c3ccccc23)ccc1F)N1CCN(C(=O)C2CC2)CC1 + NC1CCC(NC2CC2c2ccccc2)CC1
Second compound 0.1 µM
  IC50: 0.63 µM
Second compound 0.316 µM
  IC50: 0.519 µM
Second compound 1 µM
  IC50: 0.563 µM
Second compound 3.16 µM
  IC50: 0.583 µM
Second compound 10 µM
  IC50: 0.335 µM
Second compound 0.1 µM, first compound 0.0316 µM
  viability, T/C: 104%
Second compound 0.1 µM, first compound 0.1 µM
  viability, T/C: 113%
Second compound 0.1 µM, first compound 0.316 µM
  viability, T/C: 78.7%
Second compound 0.1 µM, first compound 1 µM
  viability, T/C: 31.2%
Second compound 0.1 µM, first compound 3.16 µM
  viability, T/C: 10.8%
Second compound 0.1 µM, first compound 10 µM
  viability, T/C: 12.9%
Second compound 0.316 µM, first compound 0.0316 µM
  viability, T/C: 111%
Second compound 0.316 µM, first compound 0.1 µM
  viability, T/C: 98.2%
Second compound 0.316 µM, first compound 0.316 µM
  viability, T/C: 72.1%
Second compound 0.316 µM, first compound 1 µM
  viability, T/C: 21.8%
Second compound 0.316 µM, first compound 3.16 µM
  viability, T/C: 8.68%
Second compound 0.316 µM, first compound 10 µM
  viability, T/C: 10.8%
Second compound 1 µM, first compound 0.0316 µM
  viability, T/C: 84.7%
Second compound 1 µM, first compound 0.1 µM
  viability, T/C: 101%
Second compound 1 µM, first compound 0.316 µM
  viability, T/C: 67.5%
Second compound 1 µM, first compound 1 µM
  viability, T/C: 30.7%
Second compound 1 µM, first compound 3.16 µM
  viability, T/C: 10.9%
Second compound 1 µM, first compound 10 µM
  viability, T/C: 7.07%
Second compound 3.16 µM, first compound 0.0316 µM
  viability, T/C: 100%
Second compound 3.16 µM, first compound 0.1 µM
  viability, T/C: 98.8%
Second compound 3.16 µM, first compound 0.316 µM
  viability, T/C: 75.5%
Second compound 3.16 µM, first compound 1 µM
  viability, T/C: 27.5%
Second compound 3.16 µM, first compound 3.16 µM
  viability, T/C: 7.3%
Second compound 3.16 µM, first compound 10 µM
  viability, T/C: 5.31%
Second compound 10 µM, first compound 0.0316 µM
  viability, T/C: 96.1%
Second compound 10 µM, first compound 0.1 µM
  viability, T/C: 74.6%
Second compound 10 µM, first compound 0.316 µM
  viability, T/C: 53.7%
Second compound 10 µM, first compound 1 µM
  viability, T/C: 26.1%
Second compound 10 µM, first compound 3.16 µM
  viability, T/C: 7.89%
Second compound 10 µM, first compound 10 µM
  viability, T/C: 3.97%

## NS(=O)(=O)OCC1CC(n2ccc3c(NC4CCc5ccccc54)ncnc32)CC1O (stereo not given) + NC1CCC(NC2CC2c2ccccc2)CC1
Second compound 0.1 µM
  IC50: < 0.00949 µM
Second compound 0.316 µM
  IC50: < 0.00949 µM
Second compound 1 µM
  IC50: < 0.00949 µM
Second compound 3.16 µM
  IC50: < 0.00949 µM
Second compound 10 µM
  IC50: < 0.00949 µM
Second compound 0.1 µM, first compound 0.00949 µM
  viability, T/C: 16.7%
Second compound 0.1 µM, first compound 0.03 µM
  viability, T/C: 7.98%
Second compound 0.1 µM, first compound 0.0949 µM
  viability, T/C: 5.83%
Second compound 0.1 µM, first compound 0.3 µM
  viability, T/C: 2.1%
Second compound 0.1 µM, first compound 0.949 µM
  viability, T/C: 8.58%
Second compound 0.1 µM, first compound 3 µM
  viability, T/C: 9.25%
Second compound 0.316 µM, first compound 0.00949 µM
  viability, T/C: 12.9%
Second compound 0.316 µM, first compound 0.03 µM
  viability, T/C: 8.7%
Second compound 0.316 µM, first compound 0.0949 µM
  viability, T/C: 7.27%
Second compound 0.316 µM, first compound 0.3 µM
  viability, T/C: 5.01%
Second compound 0.316 µM, first compound 0.949 µM
  viability, T/C: 6.94%
Second compound 0.316 µM, first compound 3 µM
  viability, T/C: 6.92%
Second compound 1 µM, first compound 0.00949 µM
  viability, T/C: 16.3%
Second compound 1 µM, first compound 0.03 µM
  viability, T/C: 8.77%
Second compound 1 µM, first compound 0.0949 µM
  viability, T/C: 4.53%
Second compound 1 µM, first compound 0.3 µM
  viability, T/C: 4.31%
Second compound 1 µM, first compound 0.949 µM
  viability, T/C: 1.23%
Second compound 1 µM, first compound 3 µM
  viability, T/C: 6.71%
Second compound 3.16 µM, first compound 0.00949 µM
  viability, T/C: 14.2%
Second compound 3.16 µM, first compound 0.03 µM
  viability, T/C: 8.91%
Second compound 3.16 µM, first compound 0.0949 µM
  viability, T/C: 3.64%
Second compound 3.16 µM, first compound 0.3 µM
  viability, T/C: 1.52%
Second compound 3.16 µM, first compound 0.949 µM
  viability, T/C: 4.11%
Second compound 3.16 µM, first compound 3 µM
  viability, T/C: 3.57%
Second compound 10 µM, first compound 0.00949 µM
  viability, T/C: 10.2%
Second compound 10 µM, first compound 0.03 µM
  viability, T/C: 5.83%
Second compound 10 µM, first compound 0.0949 µM
  viability, T/C: 2.78%
Second compound 10 µM, first compound 0.3 µM
  viability, T/C: 1.64%
Second compound 10 µM, first compound 0.949 µM
  viability, T/C: 1.08%
Second compound 10 µM, first compound 3 µM
  viability, T/C: 0.82%
